Data from patent US20100298252A1, “METHODS AND COMPOSITIONS FOR OPHTHALMIC TREATMENT OF FUNGAL AND BACTERIAL INFECTIONS” (priority 2004, published 2010).

How the values were obtained:
Curvularia sp. = experiment: Antifungal MIC 50 / MIC 90 alone and combined with Tricide; format: cell-based;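 note: antifungal MIC 50 and MIC 90 values against fungal isolates, with percent figures expressing how much the MIC fell once Tricide was added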
[1] = test system: Paecilomyces variotti ATCC 36257; experiment: as above; format: cell-based
Fusarium sp. 3 = experiment: microbe, parasite or virus in culture; format: cell-based
Fusarium sp. 2 = experiment: microbe, parasite or virus in culture; format: cell-based
Penicillium sp. = experiment: Antifungal MIC 50 / MIC 90 alone and combined with Tricide; format: cell-based
Cladosporium sp. = experiment: as above; format: cell-based
Aspergillus sp. = experiment: as above; format: cell-based
Fusarium sp. 1 = experiment: microbe, parasite or virus in culture; format: cell-based;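 note: mean MIC 50 and MIC 90 values against fungal isolates, with percent decrease in MIC when the antifungal is combined with Tricide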
[2] = test system: Candidia albicans ATCC 90028; experiment: Antifungal MIC 50 / MIC 90 alone and combined with Tricide; format: cell-based, Candida albicans;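 note: MIC 50 and MIC 90 values are means, and the percent decrease is the drop in MIC when the antifungal is combined with Tricide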
[3] = Curvilaria sp., Tricide 200 ug/ml
[4] = Curvularia sp., antifungal alone
[5] = Paecilomyces variotti ATCC36257
[6] = Paecilomyces variotti, Tricide […]
[7] = Aspergillus sp., Tricide 200 ug/ml
[8] = Aspergillus, Aspergiullus sp., antifungal alone
[9] = Fusarium sp. 1, Tricide 540 ug/ml
[10] = Fusarium sp. 1, antifungal alone
[11] = Candida albicans, ATCC90028, Candidia albicans ATCC 90028, antifungal alone

CCC(C)n1ncn(-c2ccc(N3CCN(c4ccc(OCC5COC(Cn6cncn6)(c6ccc(Cl)cc6Cl)O5)cc4)CC3)cc2)c1=O (centres unmarked) [Itraconazole, itraconazole]
% decrease MIC 50 (Curvularia sp.; [3]): 97-100% ^ | % decrease MIC 90 (Curvularia sp.; [3]): 80-100% ^ | MIC 50 combined with Tricide (Curvularia sp.; [3]): 0 to 0.0250 µg/mL | MIC 90 combined with Tricide (Curvularia sp.; [3]): 0 to 0.4 µg/mL | Summary % reduction in MIC 50 using Tricide (Curvularia sp.; Curvularia sp.): 97%-100% | Summary % reduction in MIC 90 using Tricide (Curvularia sp.; Curvularia sp.): 80%-100% | MIC50 (Curvularia sp.; [4]): 0.778 µg/mL | MIC90 (Curvularia sp.; [4]): 2 µg/mL | MIC50 ([1]; ATCC36257, Paecilomyces variotti ATCC 36257, antifungal alone, read-out: MIC 50): 0.0764 µg/mL | MIC90 ([1]; ATCC36257, Paecilomyces variotti ATCC 36257, antifungal alone, read-out: MIC 90): 0.5 µg/mL | Summary % reduction in MIC 50 using Tricide [1, 5]: 95% | Summary % reduction in MIC 90 using Tricide [1, 5]: 50% | % decrease MIC 50 [1, 6]: 95% | % decrease MIC 90 [1, 6]: 50% | MIC 50 combined with Tricide [1, 6]: 0.0039 µg/mL | MIC 90 combined with Tricide [1, 6]: 0.25 µg/mL | Summary % reduction in MIC 50 using Tricide (Fusarium sp. 3): 100% | Summary % reduction in MIC 90 using Tricide (Fusarium sp. 3): 100% | % decrease MIC 50 (Fusarium sp. 3; Tricide 540 ug/ml): 100% | % decrease MIC 90 (Fusarium sp. 3; Tricide 540 ug/ml): 100% | MIC 50 combined with Tricide (Fusarium sp. 3; Tricide 540 ug/ml): 0 µg/mL | MIC 90 combined with Tricide (Fusarium sp. 3; Tricide 540 ug/ml): 0 µg/mL | MIC50 (Fusarium sp. 3; antifungal alone): > 128 µg/mL | MIC90 (Fusarium sp. 3; antifungal alone): > 128 µg/mL | Summary % reduction in MIC 50 using Tricide (Fusarium sp. 2): >99.9%-100% | Summary % reduction in MIC 90 using Tricide (Fusarium sp. 2): >99.9%-100% | % decrease MIC 50 (Fusarium sp. 2; Tricide 540 ug/ml): >99.9-100% ^ | % decrease MIC 90 (Fusarium sp. 2; Tricide 540 ug/ml): >99.9-100% ^ | MIC50 (Fusarium sp. 2; antifungal alone): > 128 µg/mL | MIC90 (Fusarium sp. 2; antifungal alone): > 128 µg/mL | Summary % reduction in MIC 50 using Tricide (Penicillium sp.): 100% | Summary % reduction in MIC 90 using Tricide (Penicillium sp.): 100% | % decrease MIC 50 (Penicillium sp.; Tricide 200 ug/ml): 100% | % decrease MIC 90 (Penicillium sp.; Tricide 200 ug/ml): 100% | MIC 50 combined with Tricide (Penicillium sp.; Tricide 200 ug/ml): 0 µg/mL | MIC 90 combined with Tricide (Penicillium sp.; Tricide 200 ug/ml): 0 µg/mL | MIC50 (Penicillium sp.; antifungal alone): 0.5 µg/mL | MIC90 (Penicillium sp.; antifungal alone): 0.722 µg/mL | Summary % reduction in MIC 50 using Tricide (Cladosporium sp.): 93.8% | Summary % reduction in MIC 90 using Tricide (Cladosporium sp.): 96.9% | % decrease MIC 50 (Cladosporium sp.; Tricide 200 ug/ml): >93.8% ^ | % decrease MIC 90 (Cladosporium sp.; Tricide 200 ug/ml): 96.9% | MIC 50 combined with Tricide (Cladosporium sp.; Tricide 200 ug/ml): <0.25 µg/mL | MIC 90 combined with Tricide (Cladosporium sp.; Tricide 200 ug/ml): 0.5 µg/mL | MIC50 (Cladosporium sp.; antifungal alone): 4 µg/mL | MIC90 (Cladosporium sp.; antifungal alone): 16 µg/mL | % decrease MIC 50 (Aspergillus sp.; [7]): 84% | % decrease MIC 90 (Aspergillus sp.; [7]): 90% | MIC 50 combined with Tricide (Aspergillus sp.; [7]): 0.1250 µg/mL | MIC 90 combined with Tricide (Aspergillus sp.; [7]): 0.25 µg/mL | MIC50 (Aspergillus sp.; [8]): 0.786 µg/mL | MIC90 (Aspergillus sp.; [8]): 2.43 µg/mL | Summary % reduction in MIC 50 using Tricide (Aspergillus sp.; Aspergiullus sp.): 84% | Summary % reduction in MIC 90 using Tricide (Aspergillus sp.; Aspergiullus sp.): 90% | Summary % reduction in MIC 50 using Tricide (Fusarium sp. 1; Fasarium sp. 1): >99.9%-100% | Summary % reduction in MIC 90 using Tricide (Fusarium sp. 1; Fasarium sp. 1): 99.9%-100% | % decrease MIC 50 (Fusarium sp. 1; [9]): >99.9-100% ^ | % decrease MIC 90 (Fusarium sp. 1; [9]): 99.9-100%^ | MIC 90 combined with Tricide (Fusarium sp. 1; [9]): 0 to 0.05 µg/mL | MIC50 (Fusarium sp. 1; [10]): > 128 µg/mL | MIC90 (Fusarium sp. 1; [10]): > 128 µg/mL | MIC50 [2, 11]: 0.201 µg/mL | MIC90 [2, 11]: > 1 µg/mL | % decrease MIC 50 ([2]; Candida albicans, Tricide […]): 100% | % decrease MIC 90 ([2]; Candida albicans, Tricide […]): 100% | MIC 50 combined with Tricide ([2]; Candida albicans, Tricide […]): 0 µg/mL | Summary % reduction in MIC 50 using Tricide ([2]; Candidia albicans ATCC 90028): 100% | Summary % reduction in MIC 90 using Tricide ([2]; Candidia albicans ATCC 90028): 100%
